# In US12396459B2, “Synergistically effective herbicide composition comprising pyridate and at least one defined 4-HPPD inhibitor” (BELCHIM CROP PROTECTION NV, priority 2018, dated 2025):
# Columns and labels:
# Format in all cases: in vivo
# [1] = tested on: Setaria verticillata; assay: Examples 6-8 herbicidal effect: SETVE; conditions: 7 DAA
# [2] = tested on: Matricaria chamomilla; assay: Examples 6-8 herbicidal effect: MATCH; conditions: 7 DAA
# [3] = tested on: Chenopodium album; assay: Examples 6-8 herbicidal effect: CHEAL; conditions: 7 DAA
# [4] = tested on: Poa annua; assay: Examples 6-8 herbicidal effect: POAAN; conditions: 7 DAA
# [5] = tested on: Solanum nigrum; assay: Examples 6-8 herbicidal effect: SOLNI; conditions: 7 DAA
# [6] = tested on: Veronica persica; assay: Examples 6-8 herbicidal effect: VERPE; conditions: 7 DAA
# [7] = tested on: Echinochloa crus-galli; assay: Examples 6-8 herbicidal effect: ECHCG; conditions: 7 DAA
# [8] = tested on: Geranium dissectum; assay: Examples 6-8 herbicidal effect: GERDI; conditions: 7 DAA
# [9] = tested on: Digitaria sanguinalis; assay: Examples 6-8 herbicidal effect: DIGSA; conditions: 7 DAA
# [10] = tested on: Chenopodium album; assay: Field trial post-emergence in maize: CHEAL; conditions: 13-14 DAA, # = 1
# Description: (§1) Herbicidal activity of herbicide compositions according to the first aspect of the present invention with regard to different types of unwanted vegetation was determined during trials performed on test fields (field trials). Individual compositions comprising pyridate and individual compositions comprising a defined 4-HPPD inhibitor are compared with a herbicide composition according to the invention comprising both pyridate and a defined 4-HPPD inhibitor. The expected activity of the combination of the active compounds pyridate and a defined 4-HPPD inhibitor is calculated according to above mentioned calculation method by Colby, in order to evaluate a synergistic effect between pyridate and a defined 4-HPPD inhibitor.
# (§2) Herbicidal activity was determined by applying herbicide compositions on emerged unwanted vegetation on fields where maize was cultivated. Pyridate and a defined 4-HPPD inhibitor were applied as a tank mixture by mixing these active compounds prior to use in a spray tank. The corresponding mixture was in the form of a spray liquor. Besides, spray liquors of individual compositions comprising pyridate and of individual compositions comprising a defined 4-HPPD inhibitor were used. Test plants of unwanted vegetation with a growth stage corresponding to BBCH 10-18 (according to the extended BBCH-scale) were sprayed with the active compound preparations such that particular desired amounts of active compounds are applied per unit area. Spray liquor was diluted with water to arrive at an application volume of 50 to 450 L/ha. At a specified number of days after application (DAA), the degree of damage to the unwanted vegetation is rated in % of plants of unwanted vegetation that were killed, which was assessed by visually controlling the plants.
# [11] = tested on: Bassia scoparia; assay: Field trial post-emergence in maize: KCHSC; conditions: 13-14 DAA; # = 2; g a.c./ha: PYR 450, TEM 38, PYR + TEM 450 + 38
# Description: as §1
# (§3) Herbicidal activity was determined by applying herbicide compositions on emerged unwanted vegetation on fields where maize was cultivated. Pyridate and a defined 4-HPPD inhibitor were applied as a tank mixture by mixing these active compounds prior to use in a spray tank. The corresponding mixture was in the form of a spray liquor. […] At a specified number of days after application (DAA), the degree of damage to the unwanted vegetation is rated in % of plants of unwanted vegetation that were killed, which was assessed by visually controlling the plants.
# [12] = tested on: Lamium amplexicaule; assay: Example 6 herbicidal effect: LAMAM; conditions: 7 DAA
# [13] = tested on: Sinapis arvensis; assay: Field trial post-emergence in maize: SINAR; conditions: 13-14 DAA; # = 1; g a.c./ha: PYR 450, TOP 12.4, PYR + TOP 450 + 12.4
# Description: as §1, §3
# [14] = tested on: Brassica rapa Canola cultivars; assay: Field trial post-emergence in maize: BRSRC; conditions: 13-14 DAA; # = 1; g a.c./ha: PYR 450, TOP 12.4, PYR + TOP 450 + 12.4
# Description: as §1, §2
# [15] = tested on: Amaranthus retroflexus; assay: Field trial post-emergence in maize: AMARE; conditions: 13-14 DAA; # = 1; g a.c./ha: PYR 450, TOP 12.4, PYR + TOP 450 + 12.4
# Description: as §1, §2
# [16] = g a.c./ha: PYR 300, SCT 300, PYR + SCT 300 + 300
# [17] = g a.c./ha: PYR 450, SCT 450, PYR + SCT 300 + 450
# [18] = g a.c./ha: SMO 800, PYR + NIC 300 + 30
# [19] = g a.c./ha: PYR 10, TEM 22, PYR + TEM 10 + 100
# [20] = g a.c./ha: PYR 300, TEM 100, PYR + TEM 300 + 100
# [21] = g a.c./ha: PYR 900, TEM 44, PYR + TEM 900 + 44
smiles,measurement,setting,value
"COc1cc(OC)nc(NC(=O)NS(=O)(=O)c2ncccc2C(=O)N(C)C)n1 [NIC, nicosulfuron]",herbicidal effect (h.e.),[1]; NIC 30 g a.c./ha,37%
same,herbicidal effect (h.e.),[2]; NIC 30 g a.c./ha,6%
same,herbicidal effect (h.e.),[3]; NIC 30 g a.c./ha,24%
same,herbicidal effect (h.e.),[4]; NIC 30 g a.c./ha,75%
same,herbicidal effect (h.e.),[5]; NIC 30 g a.c./ha,17%
same,herbicidal effect (h.e.),[6]; NIC 30 g a.c./ha,7%
same,herbicidal effect (h.e.),[7]; NIC 30 g a.c./ha,38%
same,herbicidal effect (h.e.),[8]; NIC 30 g a.c./ha,33%
same,herbicidal effect (h.e.),[9]; NIC 30 g a.c./ha,32%
"CS(=O)(=O)c1ccc(C(=O)C2C(=O)CCCC2=O)c(Cl)c1 [SCT, 2-[2-Chloro-4-(methylsulfonyl)benzoyl]cyclohexane-1,3-dione]",herbicidal effect (h.e.),[1]; [16],2%
same,herbicidal effect (h.e.),[1]; [17],2%
same,herbicidal effect (h.e.),[2]; [16],28%
same,herbicidal effect (h.e.),[2]; [17],25%
same,herbicidal effect (h.e.),[3]; [16],30%
same,herbicidal effect (h.e.),[3]; [17],45%
same,herbicidal effect (h.e.),[4]; [16],3%
same,herbicidal effect (h.e.),[4]; [17],3%
same,herbicidal effect (h.e.),[5]; [16],53%
same,herbicidal effect (h.e.),[5]; [17],53%
same,herbicidal effect (h.e.),[6]; [16],83%
same,herbicidal effect (h.e.),[6]; [17],80%
same,herbicidal effect (h.e.),[7]; [16],58%
same,herbicidal effect (h.e.),[7]; [17],60%
same,herbicidal effect (h.e.),[8]; [16],28%
same,herbicidal effect (h.e.),[8]; [17],50%
same,herbicidal effect (h.e.),[9]; [16],60%
same,herbicidal effect (h.e.),[9]; [17],53%
"CCc1cccc(C)c1N(C(=O)CCl)[C@@H](C)COC [SMO, S-metolachlor]",herbicidal effect (h.e.),[1]; [18],0%
same,herbicidal effect (h.e.),[2]; [18],0%
same,herbicidal effect (h.e.),[3]; [18],1%
same,herbicidal effect (h.e.),[4]; [18],0%
same,herbicidal effect (h.e.),[5]; [18],3%
same,herbicidal effect (h.e.),[6]; [18],5%
same,herbicidal effect (h.e.),[7]; [18],0%
same,herbicidal effect (h.e.),[8]; [18],0%
same,herbicidal effect (h.e.),[9]; [18],0%
"CS(=O)(=O)c1ccc(C(=O)C2C(=O)CCCC2=O)c(Cl)c1COCC(F)(F)F [TEM, 2-[2-chloro-4-methylsulfonyl-3-(2,2,2-trifluoroethoxymethyl)benzoyl]cyclohexane-1,3-dione]",herbicidal effect (h.e.),[1]; [19],0%
same,herbicidal effect (h.e.),[1]; [20],100%
same,herbicidal effect (h.e.),[1]; [21],18%
same,herbicidal effect (h.e.),"[10]; g a.c./ha: PYR 450, TEM 38, PYR + TEM 450 + 38",0%
same,herbicidal effect (h.e.),[2]; [19],15%
same,herbicidal effect (h.e.),[2]; [20],100%
same,herbicidal effect (h.e.),[2]; [21],70%
same,herbicidal effect (h.e.),[11],40%
same,herbicidal effect (h.e.),[12]; [19],25%
same,herbicidal effect (h.e.),[12]; [20],40%
same,herbicidal effect (h.e.),[12]; [21],100%
same,herbicidal effect (h.e.),[3]; [19],68%
same,herbicidal effect (h.e.),[3]; [20],78%
same,herbicidal effect (h.e.),[3]; [21],96%
same,herbicidal effect (h.e.),[4]; [19],10%
same,herbicidal effect (h.e.),[4]; [20],32%
same,herbicidal effect (h.e.),[4]; [21],13%
same,herbicidal effect (h.e.),[5]; [19],40%
same,herbicidal effect (h.e.),[5]; [20],80%
same,herbicidal effect (h.e.),[5]; [21],85%
same,herbicidal effect (h.e.),[6]; [19],8%
same,herbicidal effect (h.e.),[6]; [20],53%
same,herbicidal effect (h.e.),[6]; [21],53%
same,herbicidal effect (h.e.),[7]; [19],83%
same,herbicidal effect (h.e.),[7]; [20],85%
same,herbicidal effect (h.e.),[7]; [21],95%
same,herbicidal effect (h.e.),[8]; [19],8%
same,herbicidal effect (h.e.),[8]; [20],33%
same,herbicidal effect (h.e.),[8]; [21],20%
same,herbicidal effect (h.e.),[9]; [19],59%
same,herbicidal effect (h.e.),[9]; [20],99%
same,herbicidal effect (h.e.),[9]; [21],95%
"Cc1c(C(=O)c2c[nH]n(C)c2=O)ccc(S(C)(=O)=O)c1C1=NOCC1 [TOP, 4-[3-(4,5-dihydro-1,2-oxazol-3-yl)-2-methyl-4-methylsulfonylbenzoyl]-2-methyl-1H-pyrazol-3-one]",herbicidal effect (h.e.),"[10]; g a.c./ha: PYR 450, TOP 12.4, PYR + TOP 450 + 12.4",1%
same,herbicidal effect (h.e.),[13],50%
same,herbicidal effect (h.e.),[14],50%
same,herbicidal effect (h.e.),[15],18%
